Where a SMILES comes first, the peptide text is derived from it.
Legend:
[1] = target: T1, human Oxytocin (OTR) receptor (Homo sapiens, UniProt P30559); assay: Calcium flux assay (FLIPR) in CHO cells expressing human OTR; format: cell-based; conditions: for Emax: CHO, read-out: hOT efficacy; for Emax / hOT efficacy: maximum response normalized to endogenous full agonist = 100%; for EC50: agonist mode, CHO cells, calcium flux FLIPR, read-out: hOT EC50
T1 construct: expressed in transfected cells
T1 sequence (P30559 1-389): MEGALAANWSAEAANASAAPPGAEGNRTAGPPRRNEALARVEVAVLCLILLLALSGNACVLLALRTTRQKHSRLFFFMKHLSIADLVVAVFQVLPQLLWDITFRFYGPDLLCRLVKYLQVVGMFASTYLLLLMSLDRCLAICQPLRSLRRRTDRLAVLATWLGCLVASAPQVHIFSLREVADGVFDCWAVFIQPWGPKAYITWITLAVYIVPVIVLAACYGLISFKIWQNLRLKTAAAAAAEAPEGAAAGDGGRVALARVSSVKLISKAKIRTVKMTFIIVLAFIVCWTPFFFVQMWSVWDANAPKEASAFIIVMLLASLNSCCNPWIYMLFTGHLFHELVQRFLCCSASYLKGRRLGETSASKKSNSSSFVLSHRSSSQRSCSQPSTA
From the text: (§1) Chines Hamster Ovary (CHO) cells were transfected with expression plasmids encoding either the human Vla, the human Oxytocin (OTR) or the humanV2 receptor, the later in combination with the chimeric Gqs5 G protein to redirect the signal to Calcium flux. Stable cells were cloned by limiting dilution to yield monoclonal cell lines expressing either human Vla, human V2+Gqs5 or human OTR receptors and selected based on functional responses detected on a fluorometric imaging plate reader (FLIPR) detecting Calcium flux in the cell after receptor activation. The stable cell lines were grown in F-12 K Nutrient Mixture (Kaighns Modification), containing 10% foetal bovine serum (FBS), 1% penicillin-streptomycin, 1% L-glutamate, 200 ug/ml Geneticin at 37° C. in a 10% CO2 incubator at 95% humidity.
(§2) Calcium Flux Assays Using Fluorescent Imaging (Fluorometric Imaging Plate Reader, FLIPR)
(§3) On the afternoon before the assay, cells were plated at a density of 50,000 cells/well into black 96 well plates with clear bottoms to allow cell inspection and fluorescence measurements from the bottom of each well. The density of cells was sufficient to yield a confluent monolayer the next day. Hanks balanced salt solution, without phenol red, containing 20 mM HEPES (pH 7.3) and 2.5 mM probenecid (assay buffer) was prepared fresh for each experiment. Compound dilutions were made using a Beckman Biomek 2000 laboratory automation workstation, in assay buffer containing 1% DMSO. The dye-loading buffer consisted of a final concentration of 2 μM Fluo-4-AM (dissolved in DMSO and pluronic acid) in assay buffer. The existing culture media was removed from the wells and 100 μl of the dye-loading buffer was added to each well and incubated for approximately 60 min at 37° C. in a 5% CO2 incubator at 95% humidity. Once dye-loaded, the cells were washed thoroughly on an Embla cell washer with the assay buffer to remove any unincorporated dye. Exactly 100 μl assay buffer was left in each well.
(§4) Each 96 well plate containing dye-loaded cells was placed into the FLIPR machine and the laser intensity set to a suitable level to detect low basal fluorescence. To test compounds as agonists, 25 μl diluted compound was added to the plate 10 seconds into the fluorescent measurements and fluorescent response was recorded for 5 minutes. The fluorescence data was normalized to the endogenous full agonist dose-response set at 100% for the maximum response and 0% for the minimum. Each agonist concentration-response curve was constructed using a four parameter logistic equation with Microsoft Excel XLFit as follows: Y=Minimum+((Maximum−Minimum)/(1+10^(LogEC50−X)nH)), where y is the % normalized fluorescence, minimum is the minimum y, maximum is the maximum y, log EC50 is the log10 concentration which produces 50% of the maximum induced fluorescence, x is the log10 of the concentration of the agonist compound and H is the slope of the curve (the Hill Coefficient). The maximum value gives the efficacy of the agonist test compound in percentage. The concentration of agonist that produced a half-maximal response is represented by the EC50 value, the logarithm of which yielded the pEC50 value.

[2] = target: T2, human V2 receptor (Homo sapiens, UniProt P30518); assay: Calcium flux assay (FLIPR) in CHO cells expressing human V2+Gqs5; format: cell-based; conditions: for Emax: CHO, maximum response normalized to endogenous full agonist = 100%, read-out: hV2 efficacy; for EC50: agonist mode, CHO cells with chimeric Gqs5, calcium flux FLIPR, read-out: hV2 EC50
T2 construct: expressed in transfected cells
T2 sequence (P30518 whole entry): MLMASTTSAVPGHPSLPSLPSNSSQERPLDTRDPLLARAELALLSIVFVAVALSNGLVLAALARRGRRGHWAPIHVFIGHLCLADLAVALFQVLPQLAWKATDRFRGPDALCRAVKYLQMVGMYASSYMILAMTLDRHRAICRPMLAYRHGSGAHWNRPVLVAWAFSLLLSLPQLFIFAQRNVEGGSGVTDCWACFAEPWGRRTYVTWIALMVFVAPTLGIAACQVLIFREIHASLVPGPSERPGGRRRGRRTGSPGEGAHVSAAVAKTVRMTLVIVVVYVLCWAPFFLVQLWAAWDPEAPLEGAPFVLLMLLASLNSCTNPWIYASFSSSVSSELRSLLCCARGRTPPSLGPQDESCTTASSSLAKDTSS
From the text: as §1, §2, §3, §4

| Emax [1] | EC50 [1] | hOT efficacy [1] | Emax [2] | EC50 [2] | Compound |
| --- | --- | --- | --- | --- | --- |
| 104% | 5.6 nM |  |  |  | CC[C@H](C)[C@@H]1NC(=O)[C@H](Cc2ccc(O)cc2)NC(=O)CCS(=O)(=O)CC[C@@H](C(=O)N(C)CC(=O)N[C@@H](Cc2ccccc2)C(=O)NCC(N)=O)NC(=O)[C@H](CC(N)=O)NC(=O)[C@H](CCC(N)=O)NC1=O [Example 16] (HELM PEPTIDE1{Y.I.Q.N.[O=C([C@H](CCS(=O)(=O)CCC(=O)[*:3])N[*:1])[*:2]].[Sar].F.G.[am]}$PEPTIDE1,PEPTIDE1,1:R1-5:R3$$$V2.0) |
| 105% | 2.2 nM |  |  |  | CC[C@H](C)[C@@H]1NC(=O)[C@H](Cc2ccc(O)cc2)NC(=O)CCS(=O)(=O)CC[C@@H](C(=O)N(C)CC(=O)N[C@@H](Cc2ccc(O)cc2)C(=O)NCC(N)=O)NC(=O)[C@H](CC(N)=O)NC(=O)[C@H](CCC(N)=O)NC1=O [Example 17] (HELM PEPTIDE1{Y.I.Q.N.[O=C([C@H](CCS(=O)(=O)CCC(=O)[*:3])N[*:1])[*:2]].[Sar].Y.G.[am]}$PEPTIDE1,PEPTIDE1,1:R1-5:R3$$$V2.0) |
| 102% |  |  |  |  | CC[C@H](C)[C@@H]1NC(=O)[C@H](Cc2ccc(O)cc2)NC(=O)CCS(=O)(=O)CC[C@@H](C(=O)N(C)CC(=O)N[C@@H](CO)C(=O)NCC(N)=O)NC(=O)[C@H](CC(N)=O)NC(=O)[C@H](CCC(N)=O)NC1=O [Example 18] (HELM PEPTIDE1{Y.I.Q.N.[O=C([C@H](CCS(=O)(=O)CCC(=O)[*:3])N[*:1])[*:2]].[Sar].S.G.[am]}$PEPTIDE1,PEPTIDE1,1:R1-5:R3$$$V2.0; C-terminus assumed; bridges inferred) |
| 110% | 1.4 nM |  |  |  | CC[C@H](C)[C@@H]1NC(=O)[C@H](Cc2ccc(O)cc2)NC(=O)CCS(=O)(=O)CC[C@@H](C(=O)N(C)CC(=O)N[C@@H](C)C(=O)NCC(N)=O)NC(=O)[C@H](CC(N)=O)NC(=O)[C@H](CCC(N)=O)NC1=O [Example 19] (HELM PEPTIDE1{Y.I.Q.N.[O=C([C@H](CCS(=O)(=O)CCC(=O)[*:3])N[*:1])[*:2]].[Sar].A.G.[am]}$PEPTIDE1,PEPTIDE1,1:R1-5:R3$$$V2.0) |
| 113% | 12.9 nM |  |  |  | CC[C@H](C)[C@@H]1NC(=O)[C@H](Cc2ccc(O)cc2)NC(=O)CCS(=O)(=O)CC[C@@H](C(=O)N(C)CC(=O)N[C@@H](CN)C(=O)NCC(N)=O)NC(=O)[C@H](CC(N)=O)NC(=O)[C@H](CCC(N)=O)NC1=O [Example 20] (HELM PEPTIDE1{Y.I.Q.N.[O=C([C@H](CCS(=O)(=O)CCC(=O)[*:3])N[*:1])[*:2]].[Sar].[NC[C@H](N[*:1])C(=O)[*:2]].G.[am]}$PEPTIDE1,PEPTIDE1,1:R1-5:R3$$$V2.0) |
| 117% | 0.4 nM |  |  |  | CC[C@H](C)[C@@H]1NC(=O)[C@H](Cc2ccc(O)cc2)NC(=O)CCS(=O)(=O)CC[C@@H](C(=O)N(C)CC(=O)N[C@H](C(=O)NCC(N)=O)C2CCCCC2)NC(=O)[C@H](CC(N)=O)NC(=O)[C@H](CCC(N)=O)NC1=O [Example 21] (HELM PEPTIDE1{Y.I.Q.N.[O=C([C@H](CCS(=O)(=O)CCC(=O)[*:3])N[*:1])[*:2]].[Sar].[O=C([C@@H](N[*:1])C1CCCCC1)[*:2]].G.[am]}$PEPTIDE1,PEPTIDE1,1:R1-5:R3$$$V2.0) |
| 109% | 2.5 nM |  |  |  | CC[C@H](C)[C@@H]1NC(=O)[C@H](Cc2ccc(O)cc2)NC(=O)CCS(=O)(=O)CC[C@@H](C(=O)N(C)CC(=O)N[C@@](C)(CC(C)C)C(=O)NCC(N)=O)NC(=O)[C@H](CC(N)=O)NC(=O)[C@H](CCC(N)=O)NC1=O [Example 22] (HELM PEPTIDE1{Y.I.Q.N.[O=C([C@H](CCS(=O)(=O)CCC(=O)[*:3])N[*:1])[*:2]].[Sar].[CC(C)C[C@](C)(N[*:1])C(=O)[*:2]].G.[am]}$PEPTIDE1,PEPTIDE1,1:R1-5:R3$$$V2.0) |
|  | 23 nM | 123% |  |  | CCC[C@H](NC(=O)[C@@H]1CCS(=O)(=O)CCC(=O)N[C@@H](Cc2ccc(O)cc2)C(=O)N[C@@H]([C@@H](C)CC)C(=O)N[C@@H](CCC(N)=O)C(=O)N[C@@H](CC(N)=O)C(=O)N1)C(=O)N[C@@H](CC(C)C)C(=O)NCC(N)=O [Example 23] (HELM PEPTIDE1{Y.I.Q.N.[O=C([C@H](CCS(=O)(=O)CCC(=O)[*:3])N[*:1])[*:2]].[Nva].L.G.[am]}$PEPTIDE1,PEPTIDE1,1:R1-5:R3$$$V2.0) |
|  | 40 nM | 114% |  |  | CCCC[C@H](NC(=O)[C@@H]1CCS(=O)(=O)CCC(=O)N[C@@H](Cc2ccc(O)cc2)C(=O)N[C@@H]([C@@H](C)CC)C(=O)N[C@@H](CCC(N)=O)C(=O)N[C@@H](CC(N)=O)C(=O)N1)C(=O)N[C@@H](CC(C)C)C(=O)NCC(N)=O [Example 24] (HELM PEPTIDE1{Y.I.Q.N.[O=C([C@H](CCS(=O)(=O)CCC(=O)[*:3])N[*:1])[*:2]].[Nle].L.G.[am]}$PEPTIDE1,PEPTIDE1,1:R1-5:R3$$$V2.0) |
|  | 16 nM | 137% |  |  | CC[C@H](C)[C@@H]1NC(=O)[C@H](Cc2ccc(O)cc2)NC(=O)CCS(=O)(=O)CC[C@@H](C(=O)N[C@@H](CO)C(=O)N[C@@H](CC(C)C)C(=O)NCC(N)=O)NC(=O)[C@H](CC(N)=O)NC(=O)[C@H](CCC(N)=O)NC1=O [Example 25] (HELM PEPTIDE1{Y.I.Q.N.[O=C([C@H](CCS(=O)(=O)CCC(=O)[*:3])N[*:1])[*:2]].S.L.G.[am]}$PEPTIDE1,PEPTIDE1,1:R1-5:R3$$$V2.0) |
| 140% | 7 nM |  |  |  | CC[C@H](C)[C@@H]1NC(=O)[C@H](Cc2ccc(O)cc2)NC(=O)CCS(=O)(=O)CC[C@@H](C(=O)N[C@@H](CCO)C(=O)N[C@@H](CC(C)C)C(=O)NCC(N)=O)NC(=O)[C@H](CC(N)=O)NC(=O)[C@H](CCC(N)=O)NC1=O [Example 26] (HELM PEPTIDE1{Y.I.Q.N.[O=C([C@H](CCS(=O)(=O)CCC(=O)[*:3])N[*:1])[*:2]].[O=C([C@H](CCO)N[*:1])[*:2]].L.G.[am]}$PEPTIDE1,PEPTIDE1,1:R1-5:R3$$$V2.0) |
| 105% | 0.5 nM |  | 143% | 3340 nM | CC[C@H](C)[C@@H]1NC(=O)[C@H](Cc2ccc(O)cc2)NC(=O)CCS(=O)(=O)CC[C@@H](C(=O)N(CC(=O)N[C@H](C(=O)NCC(N)=O)C(C)C)C2CC2)NC(=O)[C@H](CC(N)=O)NC(=O)[C@H](CCC(N)=O)NC1=O [Example 29] (HELM PEPTIDE1{Y.I.Q.N.[O=C([C@H](CCS(=O)(=O)CCC(=O)[*:3])N[*:1])[*:2]].[O=C(CN(C1CC1)[*:1])[*:2]].V.G.[am]}$PEPTIDE1,PEPTIDE1,1:R1-5:R3$$$V2.0) |
|  | 1 nM | 97% | 131% | 6340 nM | CC[C@H](C)[C@@H]1NC(=O)[C@H](Cc2ccc(O)cc2)NC(=O)CCS(=O)(=O)CC[C@@H](C(=O)N(CC(=O)NC(C)(C)C(=O)NCC(N)=O)C2CC2)NC(=O)[C@H](CC(N)=O)NC(=O)[C@H](CCC(N)=O)NC1=O [Example 30] (HELM PEPTIDE1{Y.I.Q.N.[O=C([C@H](CCS(=O)(=O)CCC(=O)[*:3])N[*:1])[*:2]].[O=C(CN(C1CC1)[*:1])[*:2]].[Aib].G.[am]}$PEPTIDE1,PEPTIDE1,1:R1-5:R3$$$V2.0) |

From patent publication US20170081368A1, “PEPTIDES AS OXYTOCIN AGONISTS” (Hoffmann-La Roche Inc., priority 2014, published 2017)
